Measured values taken from patent US7186825B2, “Conformationally restricted polyamine analogs as disease therapies” (Cellgate, Inc., priority 1999, dated 2007).
Counter-ions that a name gives are not always drawn. Like-named read-outs stand apart in the source and are kept apart here.

Columns and labels:
[1] = system: human prostate cancer cells PC3; test: MTT assay, survival/growth of cultured human prostate cancer cells PC3; type: cell-based; conditions: for EC50: figure legends, survival of cultured PC3 cells, MTT, six days after drug treatment, read-out: ED50 (the source's name); for IC50: read-out: concentration needed for 50% growth inhibition (ID50), Table 3, PC-3
Experimental: (§1) Human breast cancer cell line MCF7 was grown in Richter's Improved Modified Eagle's Medium supplemented with 10% fetal bovine serum (FBS) and 2.2 g/L sodium bicarbonate. Human brain tumor cell line U251 MG-NCI was grown in Dulbecco's Modified Eagle's Medium supplemented with 10% FBS. Human lung cancer cell line A549 was grown in Ham's F-12K medium (Cellgro, Mediatech, Inc., VA), supplemented with 10% FBS and 2 mM L-glutamine. Human colon cancer cell line HT29 was cultured in McCoy's 5A medium (Gibco, BRL, Gaithersburg, Md.) supplemented with 10% FBS. Human prostate cancer cell lines PC-3, LNCAP and DuPro were grown in RPMI 1640 Medium (Cellgro, Mediatech, Inc., VA) supplemented with 10% FBS. Another human prostate cancer cell line DU145 was grown in Dulbecco's Modified Eagle's Medium (Gibco, BRL, Gaithersburg, Md.) supplemented with 5% FBS. The A549, MCF7, PC3, LNCAP and DuPro cell lines were cultured in 100 units/mL penicillin and 100 μg/mL streptomycin. HT29 and U251MG cell lines were grown in 50 μg/mL gentamycin (Gibco, BRL, Gaithersburg, Md.). DU145 cell line was maintained in 1% antibitic-antimycotic solution (Sigma, St. Louis, Mo.). The cell cultures were maintained at 37° C. in 5% CO2/95% humidified air. DuPro cells were obtained from M. Eileen Dolan, University of Chicago. All other cells are available from the American Type Culture Collection, Rockville, Md.
(§2) A conventional MTT assay was used to evaluate percent cell survival. Exponentially growing monolayer cells were plated in 96-well plates at a density of 500 cells per well and allowed to grow for 24 hours. Serial dilutions of the drugs were added to the wells. Six days after drug treatment, 25 μl of MTT solution (5 mg/ml) was added to each well and incubated for 4 hours at 37° C. Then 100 μl of lysis buffer (20% sodium dodecyl sulfate, 50% DMF, and 0.8% acetic acid, pH 4.7) was added to each well and incubated for an additional 22 hours. A microplate reader (“EMAX”-brand, Molecular Devices, Sunnyvale, Calif.) set at 570 nm was used to determine the optical density of the cultures. Results are expressed as a ratio of the optical density in drug-treated wells to the optical density in wells treated with vehicle only.
(§3) Using the protocols of Example 2, the porphyrin-polyamine conjugates were tested for activity in vitro in various cancer cell lines.

[2] = system: human prostate cancer cells DU145; test: MTT assay, survival/growth of cultured human prostate cancer cells DU145; type: cell-based; conditions: for EC50: figure legends, survival of cultured DU145 cells, MTT, six days after drug treatment, read-out: ED50 (the source's name); for IC50: read-out: concentration needed for 50% growth inhibition (ID50), Table 3, DU-145
Experimental: as §1, §2, §3

[3] = system: human prostate cancer cells LNCAP; test: MTT assay, survival/growth of cultured human prostate cancer cells LNCAP; type: cell-based; conditions: figure legends, survival of cultured LNCAP cells, six days after drug treatment, read-out: ED50 (the source's name)
Experimental: as §1, §2, §3

[4] = system: human colon cancer cells HT29; test: MTT assay, survival/growth of cultured human colon cancer cells HT29; type: cell-based; conditions: for EC50: figure legends, survival of cultured HT29 cells, MTT, six days after drug treatment, read-out: ED50 (the source's name); for IC50: read-out: concentration needed for 50% growth inhibition (ID50), Table 3, HT-29
Experimental: (§4) As shown in Table 3 and FIGS. 1–32, several novel conformationally restricted polyamine analogs were tested for anti-proliferative properties against cancer cells.
as §1, §2

[5] = system: human lung cancer cells A549; test: MTT assay, survival/growth of cultured human lung cancer cells A549; type: cell-based; conditions: for EC50: figure legends, survival of cultured A549 cells, MTT, six days after drug treatment, read-out: ED50 (the source's name); for IC50: read-out: concentration needed for 50% growth inhibition (ID50); for IC50 / concentration needed for 50% growth inhibition (ID50): Table 3, A549
Experimental: as §4, §1, §2

[6] = system: human prostate cancer cells DUPRO; test: MTT assay, survival/growth of cultured human prostate cancer cells DUPRO; type: cell-based; conditions: for EC50: figure legends, survival of cultured DUPRO cells, MTT, six days after drug treatment, read-out: ED50 (the source's name); for IC50: read-out: concentration needed for 50% growth inhibition (ID50), Table 3, DUPRO
Experimental: as §1, §2, §3

[7] = system: human breast cancer cells MCF7; test: MTT assay, survival/growth of cultured human breast cancer cells MCF7; type: cell-based; conditions: for EC50: figure legends, survival of cultured MCF7 cells, MTT, six days after drug treatment, read-out: ED50 (the source's name); for IC50: read-out: concentration needed for 50% growth inhibition (ID50), Table 3, MCF7
Experimental: as §4, §1, §2

[8] = system: human brain tumor cells U251 MG NCI; test: MTT assay, survival/growth of cultured human brain tumor cells U251 MG NCI; type: cell-based; conditions: for EC50: figure legends, survival of cultured U251 MG NCI cells, MTT, six days after drug treatment, read-out: ED50 (the source's name); for IC50: read-out: concentration needed for 50% growth inhibition (ID50), Table 3, U251MG
Experimental: as §1, §2

Row | SMILES | EC50 [1] [µM] | EC50 [2] [µM] | EC50 [3] [µM] | EC50 [5] [µM] | EC50 ([1]; Homo sapiens, PC-3, 144 h) [µM] | IC50 ([1]; Homo sapiens) [µM] | EC50 ([2]; Homo sapiens, DU-145, 144 h) [µM] | IC50 ([2]; Homo sapiens) [µM] | EC50 ([6]; Homo sapiens, 144 h) [µM] | IC50 ([6]; Homo sapiens) [µM] | EC50 ([3]; Homo sapiens, 144 h) [µM] | IC50 ([4]; Homo sapiens) [µM] | EC50 ([5]; Homo sapiens, 144 h) [µM] | IC50 ([5]; Homo sapiens) [µM] | IC50 [1] [µM] | IC50 [2] [µM] | IC50 [6] [µM] | IC50 [4] [µM] | IC50 [7] [µM] | EC50 [8] [µM] | also measured
1 | CCNCCCCNCCCCNCCCCNCCCC1=C(C)c2cc3[nH]c(cc4nc(cc5[nH]c(cc1n2)c(CCCNCCCCNCCCCNCCCCNCC)c5C)C(CC)=C4C)c(CC)c3C (as salt: hydrochloride) [SL-11202] | – | – | – | – | – | – | – | – | – | – | – | – | – | – | – | – | – | – | – | – | melting point: 200 °C
2 | CCNCCCCNCCCCNCCCCNCC [BE-444, N1,N14-bis(ethyl) homospermine, reference compound] | 0.7 | 0.03 | 0.1 | 0.15 | – | – | – | – | – | – | – | – | – | – | – | – | – | – | – | – | EC50 [4]: 0.93 µM
3 | CCNCCCCNCCCCNCCCCNCCCCNCC [BE-4444, 1,19-bis(ethylamino)-5,10,15-triazanonadecane, reference compound] | – | – | – | – | 0.6 | 0.54 | 0.07 | 0.07 | 0.2 | 0.2 | 0.14 | 0.8 | > 31.2 | 0.4 | – | – | – | – | – | – | EC50 ([4]; Homo sapiens, HT-29, 144 h): 0.5 µM; EC50 ([7]; Homo sapiens, 144 h): > 31.2 µM; IC50 ([7]; Homo sapiens): > 31.2 µM
4 | CCNCCCCNCC1CC1CNCCCCNCC (centres unmarked) [SL-11093] | 1.6 | 0.016 | 0.21 | 0.26 | – | – | – | – | – | – | – | – | – | – | 14.3 | 0.01 | 0.06 | 0.4 | 0.66 | 0.07 | IC50 [5]: 0.26 µM; EC50 [7]: 0.66 µM
5 | CCNCCCCNCC1CC1CNCCCCNCC (centres unmarked) [SL-11098] | 1.4 | 0.02 | 0.17 | 0.29 | – | – | – | – | – | – | – | – | – | – | 1.4 | 0.018 | 0.08 | 0.4 | > 31.2 | 0.1 | concentration needed for 50% growth inhibition (ID50) [5]: 0.51 µM; IC50 [8]: 0.1 µM
6 | CCNCCCCNCC1CCC1CNCCCCNCC (centres unmarked) [SL-11099] | 2.5 | 0.014 | 0.21 | 0.51 | – | – | – | – | – | – | – | – | – | – | 2.5 | 0.014 | 0.08 | 1 | 26.3 | 0.11 | EC50 [6]: 0.08 µM; concentration needed for 50% growth inhibition (ID50) [5]: 0.65 µM; EC50 [7]: 26.3 µM; IC50 [8]: 0.11 µM
7 | CCNCCCCNCC1CCC1CNCCCCNCC (centres unmarked) [SL-11100] | 4.7 | 0.021 | 0.7 | 0.65 | – | – | – | – | – | – | – | – | – | – | 4.7 | 0.021 | 0.29 | 2 | > 31.2 | 0.22 | EC50 [6]: 0.3 µM; concentration needed for 50% growth inhibition (ID50) [5]: 2.20 µM; IC50 [8]: 0.22 µM
8 | CCNC/C=C\CNC/C=C\CNC/C=C\CNCC [SL-11108] | 2.2 | 0.13 | 7.7 | – | – | – | – | – | – | – | – | – | – | – | 2.2 | 0.13 | 0.98 | 2 | > 31.2 | 2 | EC50 [6]: 0.98 µM; concentration needed for 50% growth inhibition (ID50) [5]: >31.25 µM; IC50 [8]: 2 µM
9 | CCNC/C=C\CNCCCCNC/C=C\CNCC [SL-11114] | – | – | – | – | 0.7 | 0.7 | 0.13 | 0.135 | 0.64 | 0.64 | 3 | 3.6 | > 31.2 | > 31.2 | – | – | – | – | – | – | –
10 | CCNC/C=C\CNCCCCNCCCCNCC [SL-11118] | – | – | – | – | 1.65 | 1.65 | 0.05 | 0.05 | 0.25 | 0.25 | 0.21 | 0.98 | 0.214 | 0.21 | – | – | – | – | – | – | –
11 | CCNC/C=C\CNCCCCNCCCCNCCCCNCC [SL-11121] | – | – | – | – | 0.52 | 0.52 | 0.08 | 0.08 | 0.4 | 0.4 | 0.14 | 0.8 | > 31.2 | > 31.2 | – | – | – | – | – | – | EC50 ([7]; Homo sapiens, 144 h): 17 µM; IC50 ([7]; Homo sapiens): 17 µM
12 | CCNC/C=C\CNC/C=C\CNC/C=C\CNC/C=C\CNCC [SL-11126] | – | – | – | – | 0.2 | 0.2 | 0.51 | 0.51 | 1.1 | 1.1 | 0.55 | 1.5 | > 31.2 | > 31.2 | – | – | – | – | – | – | EC50 ([7]; Homo sapiens, 144 h): 0.7 µM; IC50 ([7]; Homo sapiens): 0.7 µM
13 | CCNC/C=C\CNCCCCNCCCCNC/C=C\CNCC [SL-11128] | – | – | – | – | 0.5 | 0.5 | 0.14 | 0.14 | 1.28 | 1.25 | 0.3 | 1.35 | – | – | – | – | – | – | – | – | –
